Source: patent US9045474B2, “Compounds and compositions for mitigating tissue damage and lethality” (The Regents of the University of California, priority 2010, dated 2015)
“Also recorded” adds a separate entry of the source.

How the values were obtained:
[1] = Preliminary studies of Targeted Library analogs (DEL/Survival assay); assay type: cell-based
Source text: Analogues within at least 70% or greater similarity as defined by the Tanimoto rule of similarity are believed to have similar results as the aforementioned compounds in this application. […] Other structures within this limitation (Tanimoto rule of similarity as described and positive in DEL/Survival assay) are included. The DEL Assay, which is further described below, has established itself not only as a effective tool in carcinogenic activity detection but also as an effective methodology in establishing DNA protective properties against insults such as free radicals and ionizing radiation (see, e.g., Sobol, Z., et al., Mutation Research/Fundamental and Molecular Mechanisms of Mutagenesis, 2008. 638(1-2): p. 83-89, Hafer, K., Rivina, L., Schiestl, R H. Yeast DEL assay detects protection against radiation induced cytotoxicity and genotoxicity—adaptation of a microtiter plate version, Radiation Research, 2010, 174(6):719-26)). Thus, the DEL Assay is a reliable tool for the prediction of genotoxic and cytotoxic modulating agents. These agents also include, but are not limited to, ionizing radiation, UV radiation, environmental carcinogenesis, genetic instability, etc.
Compounds in the Targeted Library are selected as a development candidate using the Tanimoto coefficient. […]

C3H mice [2] = experiment: Mitigation of radiation-induced lethality in C3H mice (8Gy, LD100/30); settings: 8Gy; for mice survived LD100/30 irradiation: 75 mg/kg at 1 hr and 25 hrs post exposure, past 30 days, first small study
Experimental: Radiomitigation studies were conduced by pre-treating C3H mice with the compounds of interest at as concentration of 75 mg/kg and at 24 hrs and 1 hr before an 8 Gy exposure. On a 5×24 mitigation treatment protocol mice were first lethally irradiated with 8 Gy and 24 hrs later received the first subcutaneous injection with the compound suspension with subsequent injections at 48, 72, 96, and 120 hrs. The concentration of the compound in the suspension was 75 mg/kg carrier with either 1N saline or phosphate buffer solution (PBS).
C3H mice in the mitigation experiment were irradiated with 8Gy and then injected with 75 mg/kg 1 hr post exposure and then again 25 hrs post exposure.

Yeast cells = experiment: DEL assay, antioxidant radioprotection by yeast growth phase; assay type: cell-based, Saccharomyces cerevisiae
Source text: In this study we used the DEL assay to measure gamma-ray induced DNA deletions throughout different phases of yeast culture growth. While yeast survival only differed by as much as two fold throughout the yeast growth phase, proliferating cells in lag and early exponential growth phases were ten-fold more sensitive to ionizing radiation-induced DNA deletions than cells in stationary growth. […] The ability of antioxidants L-ascorbic acid and DMSO to protect against radiation-induced DNA deletions was also measured within the different phases of yeast culture growth. […] This knowledge was used for the screening of radioprotectors.

[3] = system: Human lymphoblastoid cells; experiment: Colony survival assay after ionizing radiation; assay type: cell-based; settings: data not shown
[4] = system: Human lymphoblastoid cells; experiment: γ-H2AX foci formation after ionizing radiation; assay type: cell-based; settings: data not shown
yeast S. cerevisiae = experiment: Yeast DNA deletions (reversion to histidine prototrophy) after γ-rays; assay type: cell-based, Saccharomyces cerevisiae; settings: data not shown
mouse peripheral blood = system: mouse peripheral blood
Experimental: In this study, we examined the role of N-acetyl-L-cysteine (NAC), a clinically proven safe agent, for it's ability to protect against γ-ray-induced DNA strand breaks and/or DNA deletions in yeast and mammals. In the yeast S. cerevisiae, DNA deletions were scored by reversion to histidine prototrophy. Human lymphoblastoid cells were examined for the frequency of γ-H2AX foci formation, indicative of DNA double strand break formation. DNA strand breaks were also measured in mouse peripheral blood by the alkaline comet assay.

DBA/2 Mice = experiment: Radiation-induced leukemia model; assay type: in vivo, mouse
Experimental: DBA/2 Mice (15/group) were irradiated with ^60Co (3.5 Gy, 0.6 Gy/min) to induce leukemia. One group received no drug, another group of mice were injected s.c. with Yel001 or Yel002 (25 mg/kg) with 5 injections for 5 days. Leukemogenesis was monitored for 90 days. Blood was drawn at days −1, 21, 42, and 63 to monitor for leukemia every 21 days to monitor for leukemia development using WBCs and differentials. This leukemia model takes advantage of non-targeted radiation effects, which are important to the carcinogenic process. This model has a shorter latency period to gamma radiation-induced leukemia (latency to 50% leukemic population: 107 days) than other murine leukemia models such as CBA mouse (399 days: 50% leukemic population). DBA/2 mice were irradiated with 3.5 Gy (^60Co 0.60 Gy/min) and then injected intravenously with (5×10^6) FDC-P1 cells. Animals were then monitored 5×/weekly for 10 weeks-post-injection and then daily after 10 weeks-post-injection until leukemia development and/or euthanasia. After the animal has been determined to be leukemic using hematological parameters, it is euthanized and a necropsy is conducted to definitively determine a conclusive diagnosis of leukemia. Control animals not developing leukemia are assessed at 270 days post experiment initiation. At that time they are euthanized and necropsied.

C3H mice [5] = experiment: Toxicity experiments in C3H mice; assay type: in vivo, mouse; settings: 150 mg/kg, 75 mg/kg and 5 mg/kg; 120 days following the injections
Experimental: Having seen no adverse effects of the chemicals alone on mammalian cell models we performed a preliminary toxicity study on a group of C3H mice. […] In a pilot reproductive toxicity study, 12, week old female mice were paired up with 6 week old male mice and checked daily for the presence of a characteristic “plug” in the female vaginal canal as an indication of mating. As soon as the mating has occurred, males were removed and the females were treated weekly with 75 mg/kg s.c. throughout the gestation period and until the pups were weaned off (8 week treatment course). After weaning, treatment of the offspring was initiated at the same 75 mg/kg s.c. weekly dose. Controls were injected s.c. on the same schedule with the carrier (1N saline). Five treated and five control females gave birth to the same average number of pups per litter (n=6) without any detectable toxicities to the other. 3 litters of each treated and control groups survived to continue the study. No pathologies, toxicities nor adverse effects were observed. There are no developmental or teratogenic deficiencies in mice, average weights (21 g) are the same in both groups also.

RS112 cells = experiment: DEL plating assay for mitigation of radiation damage (treatment after 2000Gy); assay type: cell-based, Saccharomyces cerevisiae
Experimental: The mitigation protocol is based on the same DEL assay principle of recombination of the disrupted HIS3 gene that renders the cells capable of synthesizing its own histidine following radiation exposure. To establish mitigation properties of the compounds in question, the classical DEL protocol is modified as follows: first the RS112 cells are irradiated with 2000Gy and then the treatments are administered at 0 min, 10 min, 20 min, 30 min, and 60 min, incubated for 2 hrs, and plated on +13 and −His agar plates. The efficacy of the compounds is scored the same way as in the classical DEL protocol. Yel1 and Yel2 analogues that are efficacious in the HTS and classical DEL assay are analyzed for mitigation activity using this modified DEL protocol.
Six confirmed hits were also tested for radioprotection with the compounds being presented to irradiated cells at different time points following irradiation exposure. The DEL Plating Assay was used with a radiation sensitive Saccharomyces cerevisiae RS112 strain.
The general DEL Assay is described above. In this example, DEL assay is a genetic construct in the Saccharomyces cerevisiae RS112 strain where a plasmid with an internal fragment of the HIS3 gene has been integrated at the HIS3 locus, yielding an integrative disruption of the HIS3 gene. […] The construct reverts to HIS3+ by recombination between the two his3 deletion alleles which is, in 99% of the cases, associated with the deletion of the entire 6 kilobasepairs of DNA comprising the integrated plasmid. DEL events are inducible with a variety of DNA-assaulting agents: radiation, smoking, UV exposure, 92% of the known carcinogens, etc.
RS112 cells irradiated with 2000Gy show an induction of the deletion frequencies (DEL events) and roughly a 90% killing.

[6] = system: yeast DEL tester strain RS112; experiment: DEL assay, UV radiation-induced damage; assay type: cell-based, Saccharomyces cerevisiae
Experimental: DEL tester strain was irradiated with 4000 J/m^2 in the ultraviolet range and treated with Yel001 or Yel002 at 60 minutes at the concentration of 15 uM.

DEL RS112 tester strain = experiment: DEL assay, damage by chemical carcinogen MMS; assay type: cell-based, Saccharomyces cerevisiae; settings: 15 uM, 1 hrs after exposure to MMS
Source text: A DEL assay, described above, is used for assessing mitigation of damage induced by chemical carcinogens by compounds of invention.
Tests in this example show administration of Yel001 and Yel002 confers reduction against chemical carcinogen Methyl methanesulfonate (MMS) in vitro.
Reduction of cytotoxicity and genotoxicity with Yel002 is p<0.007 and p<0.04 restively; p-values for Yel001 are 0.0007 (genotoxicity) and 0.1 for cytotoxicity.

mammalian cell lines = experiment: Therapy Bioluminescence Assay (survival following irradiation); assay type: cell-based; settings: data not shown
[7] = system: RS112 strain of S. cerevisiae; experiment: Classical DEL plating assay, radioprotection at 2000Gy irradiation; assay type: cell-based, Saccharomyces cerevisiae
Experimental: All DEL assays utilize the established methodology of “recombination” (deletion of the interruption segment and consequent end joining of the adjacent sequences) of a disrupted histidine gene that renders yeast cells exposed to radiation capable of growing on media lacking this amino acid. In the classical DEL assay radiation sensitive RS112 strain of S. cerevisiae is added to the compounds of interest suspended in complete media, incubated for 2 hrs, and irradiated at 2000Gy. The cells are then plated onto full (+13) and lacking histidine (−His) agar plates. After incubation the colonies are scored and recombination events are calculated. The efficacy of the compound is evaluated as a reduced fraction of DEL recombinations in comparison to that of irradiated controls without treatment. Radioprotectors decrease the frequency of such recombination frequencies after radiation exposure.
A plasmid with an internal fragment of the HIS3 gene, which is responsible for histidine synthesis in yeast, without which cells cannot survive in media lacking histidine, has been integrated at the HIS3 locus, yielding an integrative disruption of the HIS3 gene (Schiestl, R. H., et al., Genetics, 1988. 119(2): p. 237-47). […]

[8] = lag and early exponential growth phases
[9] = non-dividing cells in stationary phase

SMILES: Cc1sc(NC(=O)CN(Cc2ccccc2)C(=O)c2ccccc2)c(C(N)=O)c1C [2-[2-(Benzoyl-benzyl-amino)-acetylamino]-4,5-dimethyl-thiophene-3-carboxylic acid amide]
- activity in preliminary studies [1]: shown activity

SMILES: NCCCNCCSP(=O)(O)O [Amifostine, reference compound]
- mice survived LD100/30 irradiation (C3H mice [2]): 33%

SMILES: C[S+](C)[O-] [DMSO]
- protection against radiation-induced DNA deletions (Yeast cells; [8]): protected
- protection against radiation-induced DNA deletions (Yeast cells; [9]): could not be protected

SMILES: O=C1O[C@H]([C@@H](O)CO)C(O)=C1O [L-ascorbic acid]
- protection against radiation-induced DNA deletions (Yeast cells; [8]): protected
- protection against radiation-induced DNA deletions (Yeast cells; [9]): could not be protected

SMILES: CC(=O)N[C@@H](CS)C(=O)O [NAC, N-acetyl-L-cysteine]
- protective effect in colony survival [3]: no protective effect
- γ-H2AX foci formation [4]: reduced γ-H2AX foci formation
- frequency of IR-induced DNA deletions (yeast S. cerevisiae): reduced the frequency of IR-induced DNA deletions
- protection against cell death (yeast S. cerevisiae): did not protect against cell death
- genotoxicity of treatment alone (mouse peripheral blood; mouse, in vivo): not genotoxic
- protection against DNA strand breaks (mouse peripheral blood; via drinking water, whole-body irradiated with 1 Gy): fully protected against DNA strand breaks

SMILES: Cc1sc(NC(=O)CN(Cc2ccc(F)cc2)C(=O)c2ccccc2)c(C(N)=O)c1C [Yel001]
- mitigation efficacy (C3H mice [2]; 75 mg/kg 1.25 protocol): did show therapeutic benefit
- mitigation efficacy (C3H mice [2]; 75 mg/kg 1.25 protocol, listed as Yel1): show activity
- mice survived LD100/30 irradiation (C3H mice [2]): 67%
- mitigation efficacy (C3H mice [2]; 75 mg/kg s.c. 5×24 protocol): did not exhibit significant efficacy
- mitigation efficacy (C3H mice [2]; 75 mg/kg s.c. 5×24 protocol, listed as Yel1): also showed efficacy
- percentage of survivors (C3H mice [2]; both protocols, 252 days post irradiation): 30%
- animals still alive beyond 30 day window (C3H mice [2]; both protocols, +292 days): 30%
- first development of leukemia (DBA/2 Mice; 3.5 Gy, 25 mg/kg s.c., no drug also within 42 days): 42 days
- mice exhibiting leukemia (DBA/2 Mice; Day 94, 3.5 Gy, 25 mg/kg s.c. 5 injections, irradiated controls 30%): 20%
- leukemia frequency (DBA/2 Mice; Day 270, irradiated population 90%): 50%
- latency to leukemia development (DBA/2 Mice; FIG. 17): increased latency to leukemia development
- frequency of radiation induced and/or spontaneous cancer (DBA/2 Mice; FIG. 18): effective for reducing the frequency of radiation induced and spontaneous cancer
- adverse physiological or behavioral effects (C3H mice [5]): did not show any adverse physiological nor behavioral adverse effects
- reduction of DEL events (gene reversion frequency) (RS112 cells; compound added 0-60 min after 2000Gy, p<0.05): decreased DEL frequencies; also recorded: significant reduction of genetic instability
- mitigation of radiation cytotoxicity (survival) (RS112 cells; compound added at time points after 2000Gy, significant only at 60 min): increased survival fractions; also recorded: mitigation of radiation cytotoxicity has been observed
- UV genotoxicity and cytotoxicity ([6]; 15 uM, P<0.05): reduces cell death and genotoxicity; also recorded: significantly reduces genotoxicity and cytotoxicity
- survival ([6]; 4000 J/m^2 UV, 15 uM at 60 minutes, untreated 0.64%): 2.91%
- genotoxicity and cytotoxicity by MMS (DEL RS112 tester strain): reduction in genotoxicity and cytotoxicity; also recorded: can be mitigated
- survival following irradiation as compared to that of controls (mammalian cell lines): 130%
- radioprotector characteristics (genotoxicity and cytotoxicity protection) [7]: radioprotector characteristics
